Measured values taken from patent US9981960B2, “Pyrrolidine compound and application as melanocortin receptor agonist” (MITSUBISHI TANABE PHARMA CORPORATION, priority 2014, dated 2018).

Target: T1, Human MC1R (Homo sapiens, UniProt Q01726)
T1 construct: endogenous in cells; host or cells: human melanoma cell line HBL
Experiment: MCR agonist measurement (cAMP measurement), human MC1R agonist activity in human melanoma cell line HBL
Type: cell-based
Settings: HBL cells; for EC50: 37° C. for 30 minutes, intracellular cAMP by fluorescence method; for Human MC1R IA %: Intrinsic Activity, vehicle cAMP = 0%, αMSH at 10^-6 M = 100%
Method: (1) Method for Culturing Cells
Human MC1R agonist activity measurement was carried out by using human melanoma cell line HBL. Culture of HBL: F-10 Nutrient Mixture containing 10% FCS and Penicillin-streptomycin was used in the culture.
(2) cAMP Assay and Data Calculation
Each compound solution having each concentration was mixed with cAMP assay buffer (HBSS (Hank's Balanced Salt Solution) containing 10 mM HEPES and 0.1% BSA), and dispensed into 96 well plate. HBL was suspended in cAMP assay buffer containing 0.5 mM IBMX so that the concentrate became 5×10^4/mL, dispensed into the above 96 well plate, then mixed, left to stand at 37° C. for 30 minutes, and then the intracellular […] concentration was measured by fluorescence method using Envision (ex. 320 nm, em. 590 nm and 665 nm).

T1 sequence (Q01726 whole entry): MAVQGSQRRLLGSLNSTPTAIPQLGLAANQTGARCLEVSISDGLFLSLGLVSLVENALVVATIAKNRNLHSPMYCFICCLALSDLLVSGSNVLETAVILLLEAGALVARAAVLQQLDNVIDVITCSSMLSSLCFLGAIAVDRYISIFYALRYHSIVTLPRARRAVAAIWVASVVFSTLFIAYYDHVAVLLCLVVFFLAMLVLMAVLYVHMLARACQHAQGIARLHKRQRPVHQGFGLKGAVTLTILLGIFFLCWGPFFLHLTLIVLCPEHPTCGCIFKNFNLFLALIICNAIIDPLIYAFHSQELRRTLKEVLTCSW

Row | Structure (SMILES) | EC50 | Human MC1R IA %
1 | COc1ccc([C@@H]2CN(C(C)(C)C)C[C@@]2(F)C(=O)N2CCC(c3ccc(C(F)(F)F)cc3N3CCC(C(=O)NS(C)(=O)=O)CC3)CC2)cc1 [Example 274] | 7.5 nM | 89%
2 | COc1ccc([C@@H]2CN(C(C)(C)C)C[C@@]2(F)C(=O)N2CCC(c3ccc(C(F)(F)F)cc3OCCCc3noc(=O)[nH]3)CC2)cc1.Cl [Example 295, 3-{3-[2-(1-{[(3R,4R)-1-tert-butyl-3-fluoro-4-(4-methoxyphenyl)pyrrolidin-3-yl]carbonyl}piperidin-4-yl)-5-(trifluoromethyl)phenoxy]propyl}-1,2,4-oxadiazole-5(4H)-one hydrochloride] | 31 nM | 91%
3 | COc1ccc([C@@H]2CN(C(C)(C)C)C[C@@]2(F)C(=O)N2CCC(c3ccc(C(F)(F)F)cc3OCCCC(=O)NS(C)(=O)=O)CC2)cc1 [Example 273] | 13 nM | 79%
4 | COc1ccc([C@@H]2CN(C3CCCC3)C[C@@]2(F)C(=O)N2CC(c3ccc(C(F)(F)F)cc3N3CCC(C(=O)O)CC3)C(F)(F)C2)cc1 (single isomer, unassigned) [Example 294] | 804 nM | 81%
5 | COC[C@H]1CN(C(=O)[C@]2(F)CN(C3CCCC3)C[C@H]2c2ccc(OC)cc2)C[C@@H]1c1ccc(C(F)(F)F)cc1N1CCC(C(=O)N(C)CC(=O)O)CC1 [Example 269] | 6.7 nM | 73%
6 | COc1ccc([C@@H]2CN(C(C)(C)C)C[C@@]2(F)C(=O)N2CCC(c3ccc(C(F)(F)F)cc3OCCCC(=O)NS(=O)(=O)N(C)C)CC2)cc1.Cl [Example 272, 4-[2-(1-{[(3R,4R)-1-tert-butyl-3-fluoro-4-(4-methoxyphenyl)pyrrolidin-3-yl]carbonyl}piperidin-4-yl)-5-(trifluoromethyl)phenoxy]-N-(dimethylsulfamoyl)butanamide hydrochloride] | 18 nM | 91%
7 | COc1ccc([C@@H]2CN(C3CCOCC3)C[C@@]2(F)C(=O)N2CC[C@@H](c3ccc(C(F)(F)F)cc3N3CCC(C(=O)O)CC3)C2)cc1 [Example 215] | 14 nM | 59%
8 | COc1ccc([C@@H]2CN(C(C)(C)C)C[C@@]2(F)C(=O)N2CCC(c3ccc(C(F)(F)F)cc3N3CCC(C(=O)O)CC3)CC2)c(F)c1 [Example 75] | 57 nM | 111%
9 | COc1ccc([C@@H]2CN(C3CCN(C(CF)CF)CC3)C[C@@]2(F)C(=O)N2CC[C@@H](c3ccc(F)cc3N3CCC(C(=O)O)CC3)C2)cc1 [Example 220] | 2.8 nM | 75%
10 | COc1ccc([C@@H]2CN(C(C)(C)C)C[C@@]2(F)C(=O)N2CCC(C#N)(c3ccc(C(F)(F)F)cc3-c3ccc(C(=O)O)cc3)CC2)cc1 [Example 87] | 56 nM | 90%
11 | COC[C@H]1CN(C(=O)[C@]2(F)CN(c3ccc(OC)nn3)C[C@H]2c2ccc(OC)cc2)C[C@@H]1c1ccc(C(F)(F)F)cc1N1CCC(C(=O)O)CC1 [Example 64] | 19 nM | 53%
12 | COc1ccc([C@@H]2CN(C3CCN(C(CF)CF)CC3)C[C@@]2(F)C(=O)N2CCC(c3ccc(C(F)(F)F)cc3N3CCC(C(=O)O)CC3)CC2)cc1 [Example 193] | 17 nM | 103%
13 | COC[C@@H]1C[C@@H](c2ccc(Cl)cc2N2CCC(C(=O)O)CC2)CN1C(=O)[C@]1(F)CN([C@H]2CC[C@H](OC)CC2)C[C@H]1c1ccc(OC)cc1 [Example 111] | 5.9 nM | 83%
14 | COc1ccc([C@@H]2CN(C(C)(C)C)C[C@@]2(F)C(=O)N2CCC(c3ccc(C(F)F)cc3N3CCC(C(=O)O)CC3)CC2)cc1 [Example 198] | 45 nM | 66%
15 | COc1ccc([C@@H]2CN(C(C)(C)C)C[C@@]2(F)C(=O)N2CCC(c3ccc(C(F)(F)F)cc3N3CCNCC3)CC2)cc1 [Example 281, [(3R,4R)-1-tert-butyl-3-fluoro-4-(4-methoxyphenyl)pyrrolidin-3-yl]{4-[2-(piperazin-1-yl)-4-(trifluoromethyl)phenyl]piperidin-1-yl}methanone] | 19 nM | 72%
16 | COc1ccc([C@@H]2CN(CCCC(=O)N(C)C)C[C@@]2(F)C(=O)N2CCC(c3ccc(C(F)(F)F)cc3N3CCC(C(=O)O)CC3)CC2)cc1 [Example 304] | 8.7 nM | 89%
17 | COc1ccc([C@@H]2CN(C(C)(C)C)C[C@@]2(F)C(=O)N2CCC(c3ccc(C(F)(F)F)cc3N3CCN(C(C)=O)CC3)CC2)cc1.Cl.Cl [Example 282, 1-{4-[2-(1-{[(3R,4R)-1-tert-butyl-3-fluoro-4-(4-methoxyphenyl)pyrrolidin-3-yl]carbonyl}piperidin-4-yl)-5-(trifluoromethyl)phenyl]piperazin-1-yl}ethanone dihydrochloride] | 27 nM | 79%
18 | COc1ccc([C@@H]2CN(C(C)(C)C)C[C@@]2(F)C(=O)N2C[C@H](C(=O)N(C)C)[C@@H](c3ccc(C(F)(F)F)cc3N3CCC(C(=O)O)CC3)C2)cc1.Cl.Cl [Example 226, 1-{2-[(3S,4R)-1-{[(3R,4R)-1-tert-butyl-3-fluoro-4-(4-methoxyphenyl)pyrrolidin-3-yl]carbonyl}-4-(dimethylcarbamoyl)pyrrolidin-3-yl]-5-(trifluoromethyl)phenyl}piperidine-4-carboxylic acid dihydrochloride] | 47 nM | 132%
19 | COc1ccc([C@@H]2CN(C(C)(C)C)C[C@@]2(F)C(=O)N2C[C@H](C(=O)O)[C@@H](c3ccc(C(F)(F)F)cc3N3CCC(C(=O)OC(C)(C)C)CC3)C2)cc1 [Example 223, (3R,4S)-4-{2-[4-(tert-butoxycarbonyl)piperidin-1-yl]-4-(trifluoromethyl)phenyl}-1-{[(3R,4R)-1-tert-butyl-3-fluoro-4-(4-methoxyphenyl)pyrrolidin-3-yl]carbonyl}pyrrolidin-3-carboxylic acid] | 90 nM | 71%
20 | COc1ccc([C@@H]2CN(C(C)(C)C)C[C@@]2(F)C(=O)N2CCC(c3ccc(C(F)(F)F)cc3C(N)=O)CC2)cc1 [Example 267] | 80 nM | 112%
21 | COc1ccc([C@@H]2CN(C3CCCC3)C[C@@]2(F)C(=O)N2CCCC(c3ccc(C(F)(F)F)cc3N3CCC(C(=O)O)CC3)C2)cc1 (single isomer, unassigned) [Example 292] | 217 nM | 25%
22 | COC[C@@H]1C[C@@H](c2ccc(C(F)(F)F)cc2N2CCC(C(=O)O)CC2)CN1C(=O)[C@]1(OC)CN(C2CCCCCC2)C[C@H]1c1ccc(OC)cc1 [Example 154] | 1.1 nM | 85%
23 | COC[C@@H]1C[C@@H](c2ccc(C(F)(F)F)cc2N2CCC(C(=O)O)CC2)CN1C(=O)[C@]1(F)CN(C2CCCC2)C[C@H]1c1ccc(OC)cc1 [Example 134] | 0.45 nM | 96%
24 | COC[C@H]1CN(C(=O)[C@]2(F)CN(C3CCOCC3)C[C@H]2c2ccc(OC)cc2)C[C@@H]1c1ccc(C(F)(F)F)cc1N1CCC(C#N)CC1.Cl.Cl [Example 278, 1-{2-[(3S,4R)-1-{[(3R,4R)-3-fluoro-4-(4-methoxyphenyl)-1-(tetrahydro-2H-pyran-4-yl)pyrrolidin-3-yl]carbonyl}-4-(methoxymethyl)pyrrolidin-3-yl]-5-(trifluoromethyl)phenyl}piperidine-4-carbonitrile dihydrochloride] | 39 nM | 46%
25 | COc1ccc([C@@H]2CN(CCCS(=O)(=O)N3CCCC3)C[C@@]2(F)C(=O)N2CCC(c3ccc(C(F)(F)F)cc3N3CCC(C(=O)O)CC3)CC2)cc1 [Example 45] | 23 nM | 105%
26 | CCO[C@H]1CC[C@@H](N2C[C@@H](c3ccc(OC)cc3)[C@](F)(C(=O)N3C[C@H](COC)[C@@H](c4ccc(C(F)(F)F)cc4N4CCC(C(=O)O)CC4)C3)C2)CC1 [Example 119] | 15 nM | 53%
27 | COC[C@@H]1C[C@@H](c2ccc(C(F)(F)F)cc2N2CCC(C(=O)O)CC2)CN1C(=O)[C@]1(F)CN(C2CCC2)C[C@H]1c1ccc(OC)cc1 [Example 139] | 0.8 nM | 80%
28 | COc1ccc([C@@H]2CN(C3CCCC3)C[C@@]2(F)C(=O)N2C[C@H](c3ccc(C(F)(F)F)cc3N3CCC(C(=O)O)CC3)C[C@H]2CC#N)cc1 [Example 300] | – | 93%
29 | COC[C@H]1CN(C(=O)[C@]2(F)CN(c3ccnc(C)c3)C[C@H]2c2ccc(OC)cc2)C[C@@H]1c1ccc(C(F)(F)F)cc1N1CCC(C(=O)O)CC1 [Example 59] | 1.2 nM | 98%
30 | CCO[C@H]1CC[C@H](N2C[C@@H](c3ccc(OC)cc3)[C@](OC)(C(=O)N3C[C@H](c4ccc(C(F)(F)F)cc4N4CCC(C(=O)O)CC4)C[C@H]3COC)C2)CC1 [Example 146] | 0.75 nM | 118%
